Where a name gives a salt, the structure may show the parent alone.
These compounds were tested against T1, hTRPM8 (Homo sapiens, UniProt Q7Z2W7) (assay: Assay on TRPM8 modulators: calcium imaging (Fluo-4, Flexstation) in HEK293 cell line stably expressing hTRPM8). Conditions: HEK293 cells stably expressing hTRPM8, calcium influx, sigmoidal dose-response fit; read-out: EC50.
T1 construct: expressed in transfected cells
Format: cell-based
Method: A HEK293 cell line stably expressing hTRPM8 was generated according to Klein et al., (Chem. Senses 36: 649-658, 2011) and receptor activation was monitored by calcium imaging in a Flexstation. For Ca-imaging assays of TRPM8 channel activation, cells were seeded on day 0 at a density of 12000 cells per well in Dulbecco's modified Eagle medium (DMEM) containing 9% foetal bovine serum in black, clear bottom 96-well plates that had been coated with 0.001% polyethyleneimine (molecular weight=60 000, Acros Organics). On day 2, agonists were evaluated via calcium imaging using Fluo-4. Briefly, growth medium was discarded, and the cells were incubated in the dark for 1 h at 37° C. in 50 μL loading buffer consisting of 2.7 μM Fluo-4 AM (Invitrogen) and […] probenecid (Sigma-Aldrich) in DMEM (without serum). After incubation, the plates were washed five times with 100 μL of assay buffer (in mM: 130 NaCl, 5 KCl, 10 HEPES, 2 CaCl2, and 10 glucose, pH7.4.) and further incubated in the dark at room temperature for 30 min. The cells were then washed five times with 100 μL assay buffer and then calcium influx to serial dilutions of inventive compounds were measured in a Flexstation 3 (Molecular Devices). Receptor activation was initiated following addition of 20 μl of a 10-fold concentrated ligand stock solution, which is also prepared in assay buffer. Fluorescence was continuously monitored for 15 seconds prior to ligand addition and for 105 seconds after ligand addition, for a total of 120 seconds. Maximal receptor activation in relation to solvent control and relative to 31.6 μM menthol is determined. Data from serial dilutions were processed with a KNIME workflow to fit a sigmoidal dose-response curve and to extrapolate EC50 values.

T1 sequence (Q7Z2W7 whole entry): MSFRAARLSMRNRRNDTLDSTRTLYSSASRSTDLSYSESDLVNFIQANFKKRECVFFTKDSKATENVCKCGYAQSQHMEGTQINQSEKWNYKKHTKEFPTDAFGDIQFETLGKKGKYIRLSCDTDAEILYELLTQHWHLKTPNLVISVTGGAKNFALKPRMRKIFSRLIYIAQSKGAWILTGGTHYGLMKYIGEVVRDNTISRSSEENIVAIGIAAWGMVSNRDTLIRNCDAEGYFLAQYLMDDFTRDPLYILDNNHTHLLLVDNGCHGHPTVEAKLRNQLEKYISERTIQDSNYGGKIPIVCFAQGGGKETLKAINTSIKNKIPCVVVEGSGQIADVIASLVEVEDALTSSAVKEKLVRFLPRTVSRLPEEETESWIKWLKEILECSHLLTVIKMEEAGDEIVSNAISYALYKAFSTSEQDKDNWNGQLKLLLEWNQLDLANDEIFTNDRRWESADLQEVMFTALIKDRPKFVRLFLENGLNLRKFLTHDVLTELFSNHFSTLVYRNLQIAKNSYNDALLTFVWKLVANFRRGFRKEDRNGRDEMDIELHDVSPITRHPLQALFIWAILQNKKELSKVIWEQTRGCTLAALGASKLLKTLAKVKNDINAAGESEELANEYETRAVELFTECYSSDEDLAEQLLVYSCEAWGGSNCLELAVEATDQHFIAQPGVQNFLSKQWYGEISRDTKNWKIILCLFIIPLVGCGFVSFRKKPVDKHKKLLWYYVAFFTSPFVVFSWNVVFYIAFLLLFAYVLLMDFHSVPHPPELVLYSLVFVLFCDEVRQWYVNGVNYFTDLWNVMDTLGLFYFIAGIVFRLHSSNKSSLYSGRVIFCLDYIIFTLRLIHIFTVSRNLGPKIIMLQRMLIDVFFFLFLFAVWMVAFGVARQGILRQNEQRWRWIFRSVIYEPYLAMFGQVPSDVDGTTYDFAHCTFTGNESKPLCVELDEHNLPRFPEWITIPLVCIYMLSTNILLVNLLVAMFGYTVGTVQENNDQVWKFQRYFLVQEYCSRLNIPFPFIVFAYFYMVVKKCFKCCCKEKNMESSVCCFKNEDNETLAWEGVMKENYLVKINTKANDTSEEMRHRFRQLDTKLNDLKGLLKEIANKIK

| EC50 | Structure (SMILES) |
| --- | --- |
| 300 to 1000 nM | C[C@H]1C[C@@](C)(c2ccc(F)cc2)C[C@H]2[C@H]1N(C)OC2(C)C (racemic) [Compound 119, rac-(3aS,5R,7S,7aS)-5-(4-fluorophenyl)-1,3,3,5,7-pentamethyloctahydrobenzo[c]isoxazole] |
| 50 to 300 nM | CCc1ccccc1[C@@]1(C)C[C@@H]2[C@@H]([C@@H](C)C1)N(C)OC2(C)C (racemic) [Compound 78, rac-(3aR,5R,7S,7aR)-5-(2-ethylphenyl)-1,3,3,5,7-pentamethyloctahydrobenzo[c]isoxazole] |
| 300 to 1000 nM | COc1ccc(C2(C)CC(C)C3C(C2)C(C)(C)ON3C)c(OC)c1 (stereo not drawn) [Compound 16, 5-(2,4-dimethoxyphenyl)-1,3,3,5,7-pentamethyloctahydrobenzo[c]isoxazole] |
| 50 to 300 nM | C[C@H]1C[C@@](C)(c2ccccc2F)C[C@@H]2[C@@H]1N(C)OC2(C)C (racemic) [Compound 81, rac-(3aR,5R,7S,7aR)-5-(2-fluorophenyl)-1,3,3,5,7-pentamethyloctahydrobenzo[c]isoxazole] |
| 50 to 300 nM | CCN1OC(C)(C)[C@@H]2C[C@](C)(CC=C(C)C)C[C@H](C)[C@H]21 (racemic) [Compound 53, rac-(3aR,5R,7S,7aR)-1-ethyl-3,3,5,7-tetramethyl-5-(3-methylbut-2-en-1-yl)octahydrobenzo[c]isoxazole] |
| 50 to 300 nM | CSc1ccc([C@@]2(C)C[C@@H]3[C@@H]([C@@H](C)C2)N(C)OC3(C)C)cc1 (racemic) [Compound 40, rac-(3aR,5R,7S,7aR)-1,3,3,5,7-pentamethyl-5-(4-(methylthio)phenyl)octahydrobenzo[c]isoxazole] |
| 1000 to 35000 nM | CC(C)CCC1CC(C)C2C(C1)C(C)(C)OCN2C (stereo not drawn) [Compound 22, 6-isopentyl-1,4,4,8-tetramethyloctahydro-2H-benzo[d][1,3]oxazine] |
| < 50 nM | Cc1cc(F)ccc1[C@@]1(C)C[C@@H]2[C@@H]([C@@H](C)C1)N(C)OC2(C)C (racemic) [Compound 100, rac-(3aR,5R,7S,7aR)-5-(4-fluoro-2-methylphenyl)-1,3,3,5,7-pentamethyloctahydrobenzo[c]isoxazole] |
| 300 to 1000 nM | COc1ccc(C#N)cc1[C@]1(C)C[C@@H](C)[C@@H]2[C@@H](C1)C(C)(C)ON2C (racemic) [Compound 132, rac-4-methoxy-3-((3aR,5R,7R,7aR)-1,3,3,5,7-pentamethyloctahydrobenzo[c]isoxazol-5-yl)benzonitrile] |
| < 50 nM | Cc1ccc(C#N)cc1[C@@]1(C)C[C@@H]2[C@@H]([C@@H](C)C1)N(C)OC2(C)C (stereo in doubt) [Compound 138, rel-4-methyl-3-((3aR,5R,7S,7aR)-1,3,3,5,7-pentamethyloctahydrobenzo[c]isoxazol-5-yl)benzonitrile] |
| < 50 nM | C[C@H]1C[C@@](C)(c2cc(Cl)cc(C#N)c2)C[C@@H]2[C@@H]1N(C)OC2(C)C (racemic) [Compound 129, rac-3-chloro-5-((3aR,5R,7S,7aR)-1,3,3,5,7-pentamethyloctahydrobenzo[c]isoxazol-5-yl)benzonitrile] |
| 50 to 300 nM | Cc1ccc(C#N)cc1[C@H]1C[C@@H]2[C@@H]([C@@H](C)C1)N(C)OC2(C)C (racemic) [Compound 136, rac-4-methyl-3-((3aR,5R,7S,7aR)-1,3,3,7-tetramethyloctahydrobenzo[c]isoxazol-5-yl)benzonitrile] |
| 1000 to 35000 nM | C[C@H]1C[C@@H](c2ccc(C(C)(C)C)cc2)C[C@@H]2[C@@H]1N(C)OC2(C)C (racemic) [Compound 96, rac-(3aR,5R,7S,7aR)-5-(4-(tert-butyl)phenyl)-1,3,3,7-tetramethyloctahydrobenzo[c]isoxazole] |
| 50 to 300 nM | Cc1cccc([C@@]2(C)C[C@@H]3[C@@H]([C@@H](C)C2)N(C)OC3(C)C)c1C (racemic) [Compound 69, rac-(3aR,5R,7S,7aR)-5-(2,3-dimethylphenyl)-1,3,3,5,7-pentamethyloctahydrobenzo[c]isoxazole] |
| 50 to 300 nM | CCN1OC(C)(C)[C@@H]2C[C@](C)(c3ccccc3)C[C@H](C)[C@H]21 (racemic) [Compound 55, rac-(3aR,5R,7S,7aR)-1-ethyl-3,3,5,7-tetramethyl-5-phenyloctahydrobenzo[c]isoxazole] |
| 300 to 1000 nM | Cc1ccccc1[C@H]1C[C@@H]2[C@@H]([C@@H](C)C1)N(C(C)C)OC2(C)C (racemic) [Compound 63, rac-(3aR,5R,7S,7aR)-1-isopropyl-3,3,7-trimethyl-5-(o-tolyl)octahydrobenzo[c]isoxazole] |
| 50 to 300 nM | Cc1ccc([C@H]2C[C@@H]3[C@@H]([C@@H](C)C2)N(C)OC3(C)C)c(C)c1 (racemic) [Compound 72, rac-(3aR,5R,7S,7aR)-5-(2,4-dimethylphenyl)-1,3,3,7-tetramethyloctahydrobenzo[c]isoxazole] |
| 300 to 1000 nM | CCc1ccccc1[C@H]1C[C@@H]2[C@@H]([C@@H](C)C1)N(C(C)C)OC2(C)C (racemic) [Compound 80, rac-(3aR,5R,7S,7aR)-5-(2-ethylphenyl)-1-isopropyl-3,3,7-trimethyloctahydrobenzo[c]isoxazole] |
| 50 to 300 nM | Cc1ccc(C#N)cc1[C@@]1(C)C[C@@H]2[C@@H]([C@@H](C)C1)N(C(C)C)OC2(C)C (racemic) [Compound 126, rac-3-((3aR,5R,7S,7aR)-1-isopropyl-3,3,5,7-tetramethyloctahydrobenzo[c]isoxazol-5-yl)-4-methylbenzonitrile] |
| 300 to 1000 nM | Cc1c(Cl)cccc1[C@]1(C)C[C@@H](C)[C@@H]2[C@@H](C1)C(C)(C)ON2C (racemic) [Compound 34, rac-(3aR,5R,7R,7aR)-5-(3-chloro-2-methylphenyl)-1,3,3,5,7-pentamethyloctahydrobenzo[c]isoxazole] |
| < 50 nM | CCN1OC(C)(C)[C@@H]2C[C@H](c3ccccc3OC)C[C@H](C)[C@H]21 (racemic) [Compound 57, rac-(3aR,5R,7S,7aR)-1-ethyl-5-(2-methoxyphenyl)-3,3,7-trimethyloctahydrobenzo[c]isoxazole] |
| 50 to 300 nM | C[C@H]1C[C@@H](c2ccccc2)C[C@@H]2[C@@H]1N(C)OC2(C)C (racemic) [Compound 52, rac-(3aR,5R,7S,7aR)-1,3,3,7-tetramethyl-5-phenyloctahydrobenzo[c]isoxazole] |
| 300 to 1000 nM | Cc1ccc([C@@]2(C)C[C@@H]3[C@@H]([C@@H](C)C2)N(C)OC3(C)C)s1 (racemic) [Compound 41, rac-(3aR,5R,7S,7aR)-1,3,3,5,7-pentamethyl-5-(5-methylthiophen-2-yl)octahydrobenzo[c]isoxazole] |
| 1000 to 35000 nM | CCN1OC(C)(C)[C@@H]2C[C@](C)(CC=C(C)C)C[C@@H](C)[C@H]21 (racemic) [Compound 32, rac-(3aR,5R,7R,7aR)-1-ethyl-3,3,5,7-tetramethyl-5-(3-methylbut-2-en-1-yl)octahydrobenzo[c]isoxazole] |
| < 50 nM | Cc1ccc(Cl)cc1[C@@]1(C)C[C@@H]2[C@@H]([C@@H](C)C1)N(C)OC2(C)C (racemic) [Compound 105, rac-(3aR,5R,7S,7aR)-5-(5-chloro-2-methylphenyl)-1,3,3,5,7-pentamethyloctahydrobenzo[c]isoxazole] |
| 50 to 300 nM | COc1ccc(OC)c(C2(C)CC(C)C3C(C2)C(C)(C)ON3C)c1 (stereo not drawn) [Compound 17, 5-(2,5-dimethoxyphenyl)-1,3,3,5,7-pentamethyloctahydrobenzo[c]isoxazole] |

| Structure (SMILES) | EC50 |
| --- | --- |
| CC1CC(C)(c2cccnc2)CC2C1N(C)OC2(C)C (stereo not drawn) [Compound 3, 1,3,3,5,7-pentamethyl-5-(pyridin-3-yl)octahydrobenzo[c]isoxazole] | 1000 to 35000 nM |
| CCCC[C@@H]1CC[C@@H]2[C@@H](C1)C(C)(C)ON2C (racemic) [Compound 27, rac-(3aR,5R,7aR)-5-butyl-1,3,3-trimethyloctahydrobenzo[c]isoxazole] | 300 to 1000 nM |
| CCCCC[C@@H]1CC[C@@H]2[C@@H](C1)C(C)(C)ON2C (racemic) [Compound 23, rac-(3aR,5R,7aR)-1,3,3-trimethyl-5-pentyloctahydrobenzo[c]isoxazole] | 300 to 1000 nM |
| CCC1CC(CC)[C@@H]2[C@@H](C1)C(C)(C)ON2CC (mixture of isomers) [Compound 116, rac-(3aR,7aR)-1,5,7-triethyl-3,3-dimethyloctahydrobenzo[c]isoxazole] | 1000 to 35000 nM |
| CC1CC(C)C2C(C1)C(C)(C)ON2C (stereo not drawn) [Compound 5, 1,3,3,5,7-pentamethyloctahydrobenzo[c]isoxazole hydrochloride] | 1000 to 35000 nM |
| CN1OC(C)(C)[C@@H]2CCC(c3ccccc3)C[C@H]21 (mixture of isomers) [Compound 115, rac-(3aR,7aR)-1,3,3-trimethyl-6-phenyloctahydrobenzo[c]isoxazole] | 1000 to 35000 nM |
| C[C@@H]1C[C@@](C)(c2ccc(Cl)c(C#N)c2)C[C@H]2[C@H]1N(C)OC2(C)C (racemic) [Compound 122, rac-2-chloro-5-((3aS,5R,7R,7aS)-1,3,3,5,7-pentamethyloctahydrobenzo[c]isoxazol-5-yl)benzonitrile] | 1000 to 35000 nM |

Reference: US20230002334A1, “TRPM8 MODULATORS” (Givaudan SA, priority 2019, published 2023)
